Assay results reported in patent US20230147962A1, “FIBROBLAST ACTIVATION PROTEIN LIGANDS FOR TARGETED DELIVERY APPLICATIONS” (PHILOCHEM AG, priority 2020, published 2023).
*1 amine or outer side, *2 acyl side, *3 side chain or, on linkers, in order; H or OH if unused. Where a SMILES comes first, the peptide text is derived from it. The star is where a group is joined. Fluorescein(5-Mal) = O=C1OC2(c3ccc(O)cc3Oc3cc(O)ccc32)c2ccc(N3C(=O)CC(*)C3=O)cc21; X1 = N#C[C@@H]1CC(F)(F)CN1C(=O)CNC(=O)c1ccnc2c(N*)cccc12; Suc = O=C(CCC(=O)[*:2])[*:1]

Experiments:
murine FAP = biological target: T1, murine FAP (Mus musculus, UniProt P97321); test: Affinity measurement to murine FAP by fluorescence polarization; type: binding; settings: binder 10 nM, read-out: KD to mFAP
T1 sequence (P97321 1-761): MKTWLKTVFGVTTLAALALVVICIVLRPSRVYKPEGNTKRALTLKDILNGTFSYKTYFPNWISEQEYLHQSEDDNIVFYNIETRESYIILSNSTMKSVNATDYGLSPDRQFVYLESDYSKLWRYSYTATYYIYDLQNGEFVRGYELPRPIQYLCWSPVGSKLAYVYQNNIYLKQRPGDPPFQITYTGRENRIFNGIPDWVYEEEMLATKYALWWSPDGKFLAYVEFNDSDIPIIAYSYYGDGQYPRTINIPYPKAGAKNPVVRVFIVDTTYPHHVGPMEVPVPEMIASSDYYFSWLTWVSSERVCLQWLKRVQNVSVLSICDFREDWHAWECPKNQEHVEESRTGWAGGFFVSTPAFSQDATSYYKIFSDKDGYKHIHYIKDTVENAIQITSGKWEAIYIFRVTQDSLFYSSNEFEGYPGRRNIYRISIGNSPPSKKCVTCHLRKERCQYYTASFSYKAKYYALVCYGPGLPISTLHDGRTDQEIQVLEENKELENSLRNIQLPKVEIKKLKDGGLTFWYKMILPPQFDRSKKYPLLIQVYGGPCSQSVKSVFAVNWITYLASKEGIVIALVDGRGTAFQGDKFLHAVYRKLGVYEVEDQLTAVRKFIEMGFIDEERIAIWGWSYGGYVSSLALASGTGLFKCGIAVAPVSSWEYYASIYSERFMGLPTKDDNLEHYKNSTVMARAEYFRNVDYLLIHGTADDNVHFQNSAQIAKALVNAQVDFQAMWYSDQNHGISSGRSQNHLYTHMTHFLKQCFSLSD
Protocol: (§1) Fluorescence polarization experiments were performed in 384-well plates (non-binding, ps, f-bottom, black, high volume, 30 μL final volume). Stock solutions of human FAP (4 μM) and murine FAP (5 μM) were serially diluted with buffer (50 mM Tris, 100 mM NaCl, 1 mM EDTA, pH=7.4), while the final concentration of the binders was kept constant at 10 nM. The fluorescence anisotropy was measured on a TECAN microtiter plate reader. Experiments were performed in triplicate and the mean anisotropy values fitted using Prism 7.

hFAP = biological target: T2, hFAP (Homo sapiens, UniProt Q12884); test: Affinity measurement to human FAP by fluorescence polarization; type: binding; settings: binder 10 nM, read-out: KD to hFAP
T2 construct: made in house; host or cells: CHO cells, transient gene expression, purified from supernatant
T2 sequence (Q12884 with tags, fused parts or gaps): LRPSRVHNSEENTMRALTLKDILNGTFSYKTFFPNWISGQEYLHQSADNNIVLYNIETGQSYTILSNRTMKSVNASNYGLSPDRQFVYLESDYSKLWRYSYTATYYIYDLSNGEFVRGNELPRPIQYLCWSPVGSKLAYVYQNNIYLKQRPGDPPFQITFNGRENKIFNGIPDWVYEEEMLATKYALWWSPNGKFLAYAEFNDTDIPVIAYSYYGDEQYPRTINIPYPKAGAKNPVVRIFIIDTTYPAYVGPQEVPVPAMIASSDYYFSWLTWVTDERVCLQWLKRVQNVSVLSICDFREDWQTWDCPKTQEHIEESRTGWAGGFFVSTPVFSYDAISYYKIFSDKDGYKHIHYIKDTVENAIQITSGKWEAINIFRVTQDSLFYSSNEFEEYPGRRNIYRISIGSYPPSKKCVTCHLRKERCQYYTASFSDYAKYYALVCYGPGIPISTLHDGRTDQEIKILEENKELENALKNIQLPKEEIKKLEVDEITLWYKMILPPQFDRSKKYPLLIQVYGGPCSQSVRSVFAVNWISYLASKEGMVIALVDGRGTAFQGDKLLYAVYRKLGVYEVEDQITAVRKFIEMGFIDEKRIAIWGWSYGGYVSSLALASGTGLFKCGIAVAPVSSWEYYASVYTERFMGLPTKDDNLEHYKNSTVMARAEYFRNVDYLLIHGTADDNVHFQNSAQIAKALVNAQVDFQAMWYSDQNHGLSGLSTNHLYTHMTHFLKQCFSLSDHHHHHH
Protocol: Fluorescence polarization measurements were performed in 384-well plates (non-binding, ps, f-bottom, black, high volume, 30 μL final volume). A stock solution of human FAP (4 μM) was serially diluted with buffer (50 mM Tris, 100 mM NaCl, 1 mM EDTA, pH=7.4), while the final concentration of the binders was kept constant at 10 nM. The measurements were carried out after incubating for 30 min at 37° C. in the dark by fluorescent polarization (FIG. 4).
as §1

HT-1080.hFAP = test: FACS analysis on HT-1080 wild type and HT-1080.hFAP; type: cell-based; settings: 10 nM
Protocol: SK-RC-52.hFAP, SK-RC-52.wt, HT-1080.wt and HT-1080.hFAP were detached from culture plates using Accutase, counted and suspended to a final concentration of 1.5×10^6 cells/mL in a 1% v/v solution of FCS in PBS pH 7.4. […] Cells were washed once with 200 μL 1% v/v solution of FCS in PBS pH 7.4 (200 μL), spun down, resuspended in a 1% v/v solution of FCS in PBS pH 7.4 (300 μL) and analyzed on a CytoFLEX cytometer (Beckman Coulter). The raw data were processed with the FlowJo 10.4 software.

HT-1080 Wild type = test: Confocal microscopy on HT-1080 wild type; type: cell-based; settings: negative control cells
Protocol: HT-1080.hFAP and HT-1080 cells were seeded into 4-well cover slip chamber plates at a density of 10^4 cells per well in DMEM medium (1 mL) supplemented with 10% FCS, AA and HEPES (10 mM) and allowed to grow for 24 hours under standard culture conditions. Hoechst 33342 nuclear dye was used to stain nuclear structures.
The culture medium was replaced with fresh medium containing conjugate 15 (100 nM). Randomly selected colonies imaged on a SP8 confocal microscope equipped with an AOBS device (Leica Microsystems).

mFAP = biological target: T3, mFAP (Mus musculus, UniProt P97321); test: Chromatographic co-elution (PD-10) of ligand-protein complexes, mFAP; type: binding, murine; settings: PD-10 column, mFAP 5 μM
T3 sequence (P97321 1-761): T1 sequence (P97321 1-761)
Protocol: A PD-10 column was pre-equilibrated with assay buffer (50 mM Tris, 100 mM NaCl, 1 mM EDTA, pH=7.4) prior to the loading of the complex. A mixture of different proteins (hFAP=2 μM, mFAP=5 μM) and conjugate 15 (100 nM) were incubated and loaded on the column. The mixture was flushed using the assay buffer. The flow through was collected in 96-well plates and the fluorescence intensity was measured immediately on a TECAN microtiter plate reader, monitoring the fluorescence at an excitation wavelength of 485 nm and an emission wavelength of 535 nm. The concentration of the proteins was estimated by measuring the absorbance at 280 nm using a Nanodrop 2000/2000c spectrophotometer.

N#C[C@@H]1CC(F)(F)CN1C(=O)CNC(=O)c1ccnc2c(NC(=O)CCC(=O)N[C@@H](CC(=O)O)C(=O)N[C@@H](CCCCN)C(=O)N[C@@H](CC(=O)O)C(=O)N[C@@H](CSC3CC(=O)N(c4ccc5c(c4)C(=O)OC54c5ccc(O)cc5Oc5cc(O)ccc54)C3=O)C(=O)O)cccc12 (stereo partly drawn) [Conjugate 15, (2R,5S,8S,11S)-8-(4-aminobutyl)-5,11-bis(carboxymethyl)-16-((4-((2-((S)-2-cyano-4,4-difluoropyrrolidin-1-yl)-2-oxoethyl)carbamoyl)quinolin-8-yl)amino)-2-(((1-(3′,6′-dihydroxy-3-oxo-3H-spiro[isobenzofuran-1,9′-xanthen]-5-yl)-2,5-dioxopyrrolidin-3-yl)thio)methyl)-4,7,10,13,16-pentaoxo-3,6,9,12-tetraazahexadecanoic acid] ({X1-Suc}-DKDC(Fluorescein(5-Mal))-OH)
Kd (murine FAP): 11.6 nM | Kd (hFAP): 0.68 nM | cellular binding, HT-1080 Wild type vs HT-1080.hFAP (HT-1080.hFAP): FAP-specific cellular binding | accumulation on HT-1080 Wild type cells (HT-1080 Wild type): no accumulation on the cell membrane and in the cytosol | complex formation with mFAP in PD-10 co-elution (mFAP): stable complex is formed
